Values after ≈ are worked out from the molar mass of the structure shown.
Assays:
Type in all cases: functional
[1] = system: Bordetella pertussis; assay: Antibacterial activity against quinolone-susceptible Bordetella pertussis CCUG 30837 by Etest method
[2] = system: Bordetella pertussis; assay: Antibacterial activity against quinolone-susceptible Bordetella pertussis BP101 by Etest method
[3] = system: Bordetella pertussis; assay: Antibacterial activity against quinolone-susceptible Bordetella pertussis BP106 by Etest method
[4] = system: Bordetella pertussis; assay: Antibacterial activity against quinolone-susceptible Bordetella pertussis BP109 by Etest method
[5] = system: Bordetella pertussis; assay: Antibacterial activity against quinolone-susceptible Bordetella pertussis BP111 by Etest method
[6] = system: Bordetella pertussis; assay: Antibacterial activity against quinolone-susceptible Bordetella pertussis BP112 by Etest method
[7] = system: Bordetella pertussis; assay: Antibacterial activity against quinolone-susceptible Bordetella pertussis BP113 by Etest method
[8] = system: Bordetella pertussis; assay: Antibacterial activity against quinolone-susceptible Bordetella pertussis BP115 by Etest method
[9] = system: Bordetella pertussis; assay: Antibacterial activity against quinolone-susceptible Bordetella pertussis BP128 by Etest method
[10] = system: Bordetella pertussis; assay: Antibacterial activity against […] Bordetella pertussis BP58 by Etest method
[11] = system: Bordetella pertussis; assay: Antibacterial activity against […] Bordetella pertussis BP99 by Etest method
[12] = system: Bordetella pertussis; assay: Antibacterial activity against […] Bordetella pertussis BP117 by Etest method
[13] = system: Bordetella pertussis; assay: Antibacterial activity against […] Bordetella pertussis BP118 by Etest method
[14] = system: Bordetella pertussis; assay: Antibacterial activity against […] Bordetella pertussis BP121 by Etest method
[15] = system: Bordetella pertussis; assay: Antibacterial activity against […] Bordetella pertussis BP122 by Etest method
[16] = system: Bordetella pertussis; assay: Antibacterial activity against quinolone-susceptible Bordetella pertussis CCUG 30837 by Etest method in presence of efflux pump inhibitor phenyl-arginine-beta-naphthylamide
[17] = system: Bordetella pertussis; assay: Antibacterial activity against quinolone-susceptible Bordetella pertussis BP113 by Etest method in presence of efflux pump inhibitor phenyl-arginine-beta-naphthylamide
[18] = system: Bordetella pertussis; assay: Antibacterial activity against […] Bordetella pertussis BP58 by Etest method in presence of efflux pump inhibitor phenyl-arginine-beta-naphthylamide
[19] = system: Bordetella pertussis; assay: Antibacterial activity against […] Bordetella pertussis BP99 by Etest method in presence of efflux pump inhibitor phenyl-arginine-beta-naphthylamide
[20] = system: Bordetella pertussis; assay: Antibacterial activity against […] Bordetella pertussis BP117 by Etest method in presence of efflux pump inhibitor phenyl-arginine-beta-naphthylamide
[21] = system: Bordetella pertussis; assay: Antibacterial activity against […] Bordetella pertussis BP118 by Etest method in presence of efflux pump inhibitor phenyl-arginine-beta-naphthylamide
[22] = system: Bordetella pertussis; assay: Antibacterial activity against […] Bordetella pertussis BP121 by Etest method in presence of efflux pump inhibitor phenyl-arginine-beta-naphthylamide
[23] = system: Bordetella pertussis; assay: Antibacterial activity against […] Bordetella pertussis BP122 by Etest method in presence of efflux pump inhibitor phenyl-arginine-beta-naphthylamide

With `C[C@@H]1CN(c2c(F)c(N)c3c(=O)c(C(=O)O)cn(C4CC4)c3c2F)C[C@H](C)N1` [SPARFLOXACIN] the MIC [1] was 0.016 µg/mL (≈ 0.0408 µM), the MIC [2] was 0.008 µg/mL (≈ 0.0204 µM) and the MIC [3] was 0.004 µg/mL (≈ 0.0102 µM). For the same compound, the MIC [4] was 0.004 µg/mL (≈ 0.0102 µM), the MIC [5] was 0.008 µg/mL (≈ 0.0204 µM) and the MIC [6] was 0.004 µg/mL (≈ 0.0102 µM). It also gave an MIC [7] of 0.004 µg/mL (≈ 0.0102 µM), an MIC [8] of 0.004 µg/mL (≈ 0.0102 µM) and an MIC [9] of 0.008 µg/mL (≈ 0.0204 µM). The MIC [10] was 0.125 µg/mL (≈ 0.319 µM), the MIC [11] was 0.032 µg/mL (≈ 0.0815 µM) and the MIC [12] was 0.064 µg/mL (≈ 0.163 µM). The MIC [13] was 0.064 µg/mL (≈ 0.163 µM), the MIC [14] was 0.064 µg/mL (≈ 0.163 µM) and the MIC [15] was 0.064 µg/mL (≈ 0.163 µM).
`CCn1cc(C(=O)O)c(=O)c2ccc(C)nc21` [NALIDIXIC ACID] was tested, and the MIC [1] was 2 µg/mL (≈ 8.61 µM), the MIC [2] was 2 µg/mL (≈ 8.61 µM) and the MIC [3] was 1 µg/mL (≈ 4.31 µM). It also gave an MIC [4] of 2 µg/mL (≈ 8.61 µM), an MIC [5] of 2 µg/mL (≈ 8.61 µM) and an MIC [6] of 1 µg/mL (≈ 4.31 µM). It also gave an MIC [7] of 2 µg/mL (≈ 8.61 µM), an MIC [8] of 1 µg/mL (≈ 4.31 µM) and an MIC [9] of 1 µg/mL (≈ 4.31 µM). For the same compound, the MIC [10] was over 256 µg/mL, the MIC [11] was over 256 µg/mL and the MIC [12] was over 256 µg/mL. For the same compound, the MIC [13] was over 256 µg/mL, the MIC [14] was over 256 µg/mL and the MIC [15] was over 256 µg/mL. It also gave an MIC [16] of 0.25 µg/mL, an MIC [17] of 0.25 µg/mL and an MIC [18] of 64 µg/mL. It also gave an MIC [19] of 32 µg/mL, an MIC [20] of 64 µg/mL and an MIC [21] of 64 µg/mL. The MIC [22] was 32 µg/mL and the MIC [23] was 32 µg/mL.
With `O=C(N[C@H](CO)[C@H](O)c1ccc([N+](=O)[O-])cc1)C(Cl)Cl` [CHLORAMPHENICOL] the MIC [1] was 0.5 µg/mL (≈ 1.55 µM), the MIC [2] was 0.25 µg/mL (≈ 0.774 µM) and the MIC [3] was 0.25 µg/mL (≈ 0.774 µM). For the same compound, the MIC [4] was 0.125 µg/mL (≈ 0.387 µM), the MIC [5] was 0.25 µg/mL (≈ 0.774 µM) and the MIC [6] was 0.25 µg/mL (≈ 0.774 µM). For the same compound, the MIC [7] was 0.5 µg/mL (≈ 1.55 µM), the MIC [8] was 0.5 µg/mL (≈ 1.55 µM) and the MIC [9] was 0.25 µg/mL (≈ 0.774 µM). It also gave an MIC [10] of 0.5 µg/mL (≈ 1.55 µM), an MIC [11] of 0.25 µg/mL (≈ 0.774 µM) and an MIC [12] of 0.25 µg/mL (≈ 0.774 µM). The MIC [13] was 0.5 µg/mL (≈ 1.55 µM), the MIC [14] was 0.25 µg/mL (≈ 0.774 µM) and the MIC [15] was 0.25 µg/mL (≈ 0.774 µM).
`CCn1cc(C(=O)O)c(=O)c2cc(F)c(N3CCNCC3)cc21` [NORFLOXACIN] gave an MIC [1] of 0.125 µg/mL (≈ 0.391 µM), an MIC [2] of 0.032 µg/mL (≈ 0.1 µM) and an MIC [3] of 0.064 µg/mL (≈ 0.2 µM). The MIC [4] was 0.064 µg/mL (≈ 0.2 µM), the MIC [5] was 0.064 µg/mL (≈ 0.2 µM) and the MIC [6] was 0.064 µg/mL (≈ 0.2 µM). For the same compound, the MIC [7] was 0.064 µg/mL (≈ 0.2 µM), the MIC [8] was 0.064 µg/mL (≈ 0.2 µM) and the MIC [9] was 0.064 µg/mL (≈ 0.2 µM). For the same compound, the MIC [10] was 1 µg/mL (≈ 3.13 µM), the MIC [11] was 1 µg/mL (≈ 3.13 µM) and the MIC [12] was 0.5 µg/mL (≈ 1.57 µM). It also gave an MIC [13] of 0.5 µg/mL (≈ 1.57 µM), an MIC [14] of 1 µg/mL (≈ 3.13 µM) and an MIC [15] of 1 µg/mL (≈ 3.13 µM).
Work on `C[C@H]1COc2c(N3CCN(C)CC3)c(F)cc3c(=O)c(C(=O)O)cn1c23.C[C@H]1COc2c(N3CCN(C)CC3)c(F)cc3c(=O)c(C(=O)O)cn1c23.O` [LEVOFLOXACIN] yielded an MIC [1] of 0.016 µg/mL, an MIC [2] of 0.016 µg/mL and an MIC [3] of 0.008 µg/mL. The MIC [4] was 0.004 µg/mL, the MIC [5] was 0.008 µg/mL and the MIC [6] was 0.008 µg/mL. The MIC [7] was 0.008 µg/mL, the MIC [8] was 0.008 µg/mL and the MIC [9] was 0.016 µg/mL. It also gave an MIC [10] of 0.064 µg/mL, an MIC [11] of 0.064 µg/mL and an MIC [12] of 0.064 µg/mL. The MIC [13] was 0.064 µg/mL, the MIC [14] was 0.064 µg/mL and the MIC [15] was 0.064 µg/mL.
In the case of `O=C(O)c1cn(C2CC2)c2cc(N3CCNCC3)c(F)cc2c1=O` [CIPROFLOXACIN], the MIC [1] is reported as 0.032 µg/mL (≈ 0.0966 µM), the MIC [2] is reported as 0.016 µg/mL (≈ 0.0483 µM) and the MIC [3] is reported as 0.008 µg/mL (≈ 0.0241 µM). It also gave an MIC [4] of 0.008 µg/mL (≈ 0.0241 µM), an MIC [5] of 0.016 µg/mL (≈ 0.0483 µM) and an MIC [6] of 0.008 µg/mL (≈ 0.0241 µM). The MIC [7] was 0.008 µg/mL (≈ 0.0241 µM), the MIC [8] was 0.016 µg/mL (≈ 0.0483 µM) and the MIC [9] was 0.016 µg/mL (≈ 0.0483 µM). For the same compound, the MIC [10] was 0.125 µg/mL (≈ 0.377 µM), the MIC [11] was 0.125 µg/mL (≈ 0.377 µM) and the MIC [12] was 0.125 µg/mL (≈ 0.377 µM). For the same compound, the MIC [13] was 0.125 µg/mL (≈ 0.377 µM), the MIC [14] was 0.125 µg/mL (≈ 0.377 µM) and the MIC [15] was 0.125 µg/mL (≈ 0.377 µM).
`COc1c(N2CCNC(C)C2)c(F)cc2c(=O)c(C(=O)O)cn(C3CC3)c12` (stereo not drawn) [GATIFLOXACIN] was tested, and the MIC [1] was 0.008 µg/mL (≈ 0.0213 µM), the MIC [2] was 0.008 µg/mL (≈ 0.0213 µM) and the MIC [3] was 0.004 µg/mL (≈ 0.0107 µM). The MIC [4] was 0.004 µg/mL (≈ 0.0107 µM), the MIC [5] was 0.008 µg/mL (≈ 0.0213 µM) and the MIC [6] was 0.004 µg/mL (≈ 0.0107 µM). The MIC [7] was 0.004 µg/mL (≈ 0.0107 µM), the MIC [8] was 0.008 µg/mL (≈ 0.0213 µM) and the MIC [9] was 0.008 µg/mL (≈ 0.0213 µM). For the same compound, the MIC [10] was 0.032 µg/mL (≈ 0.0852 µM), the MIC [11] was 0.032 µg/mL (≈ 0.0852 µM) and the MIC [12] was 0.032 µg/mL (≈ 0.0852 µM). The MIC [13] was 0.032 µg/mL (≈ 0.0852 µM), the MIC [14] was 0.032 µg/mL (≈ 0.0852 µM) and the MIC [15] was 0.032 µg/mL (≈ 0.0852 µM).

Source: ChEMBL document CHEMBL1649508, “Emergence of quinolone-resistant Bordetella pertussis in Japan” (2009)
